Experimental data as given in ChEMBL document CHEMBL2375251, “Anticancer activity of novel hybrid molecules containing 5-benzylidene thiazolidine-2,4-dione” (Eur J Med Chem, 2013).

Legend:
Assay type in all cases: functional, cell-based
HeLa = assay: Cytotoxicity against human HeLa cells after 4 days by Coulter counter analysis; settings: 96 h
CCRF-CEM = assay: Cytotoxicity against human CEM cells after 3 days by Coulter counter analysis; settings: 72 h
FM3A = assay: Cytotoxicity against mouse FM3A cells after 2 days by Coulter counter analysis; settings: 48 h
L1210 = assay: Cytotoxicity against mouse L1210 cells after 2 days by Coulter counter analysis; settings: L1210, 48 h

Structure (SMILES) | IC50 (HeLa) [µM] | IC50 (CCRF-CEM) [µM] | IC50 (FM3A) [µM] | IC50 (L1210) [µM]
CC(C)(C)c1ccc(CN2C(=O)S/C(=C\c3ccc(N)cc3)C2=O)cc1 | 53 | 66 | 80 | 94
Nc1ccc(/C=C2\SC(=O)N(Cc3ccccc3)C2=O)cc1 | 46 | 42 | 24 | 38
C=C(Br)C(=O)Nc1ccc(/C=C2\SC(=O)N(Cc3ccc(C(F)(F)F)cc3)C2=O)cc1 | 13 | 8 | 23 | 12
C=C(Br)C(=O)Nc1ccc(/C=C2\SC(=O)N(Cc3ccc(C(C)(C)C)cc3)C2=O)cc1 | 2.7 | 0.83 | 4 | 1.6
C=C(Br)C(=O)Nc1ccc(/C=C2\SC(=O)N(CC)C2=O)cc1 | 1.4 | 0.87 | 2.3 | 0.5
C=C(Br)C(=O)Nc1cccc(/C=C2\SC(=O)N(Cc3ccc(C(C)(C)C)cc3)C2=O)c1 | 2.8 | 3 | 5.2 | 3.2
N[C@@H](Cc1ccc(N(CCCl)CCCl)cc1)C(=O)O [MELPHALAN] |  | 3.5 | 3.6 | 
C=C(Br)C(=O)Nc1cccc(/C=C2\SC(=O)N(Cc3cccc(F)c3)C2=O)c1 | 2.7 | 0.69 | 0.69 | 0.59
Nc1cccc(/C=C2\SC(=O)N(Cc3ccc(Cl)cc3)C2=O)c1 | > 250 | > 250 | 246 | 218
C=C(Br)C(=O)Nc1ccc(/C=C2\SC(=O)N(Cc3cccc(Cl)c3)C2=O)cc1 | 8.9 | 3.7 | 6.1 | 3.4
CCN1C(=O)S/C(=C\c2ccc(N)cc2)C1=O | 108 | 91 | 76 | 82
Cc1ccc(CN2C(=O)S/C(=C\c3ccc(N)cc3)C2=O)cc1 | > 250 | > 250 | > 250 | 94
C=C(Br)C(=O)Nc1ccc(/C=C2\SC(=O)N(Cc3ccccc3)C2=O)cc1 | 1 | 2.3 | 3 | 1.1
C=C(Br)C(=O)Nc1ccc(/C=C2\SC(=O)N(Cc3ccc(F)cc3)C2=O)cc1 | 2 | 2.4 | 4.6 | 2.2
C=C(Br)C(=O)Nc1ccc(/C=C2\SC(=O)N(Cc3ccc(C)cc3)C2=O)cc1 | 8.9 | 3.7 | 6.1 | 3.4
Cc1ccc(CN2C(=O)S/C(=C\c3cccc(N)c3)C2=O)cc1 | 98 | > 250 | 158 | 176
Nc1cccc(/C=C2\SC(=O)N(Cc3ccc(C(F)(F)F)cc3)C2=O)c1 | > 250 | > 250 | > 250 | > 250
C=C(Br)C(=O)Nc1ccc(/C=C2\SC(=O)N(Cc3cccc(F)c3)C2=O)cc1 | 5.9 | 3.2 | 4 | 1.2
Nc1ccc(/C=C2\SC(=O)N(Cc3cccc(F)c3)C2=O)cc1 | 250 | 116 | 121 | 100

Structure (SMILES) | IC50 (HeLa) [µM] | IC50 (CCRF-CEM) [µM] | IC50 (FM3A) [µM] | IC50 (L1210) [µM]
Nc1cccc(/C=C2\SC(=O)N(Cc3cccc(Cl)c3)C2=O)c1 | 250 | 195 | 164 | 211
Nc1cccc(/C=C2\SC(=O)N(CCc3ccccc3)C2=O)c1 | 250 | 106 | 68 | 142
Nc1cccc(/C=C2\SC(=O)N(Cc3ccc(F)cc3)C2=O)c1 | 86 | 87 | 140 | 142
Nc1ccc(/C=C2\SC(=O)N(CCc3ccccc3)C2=O)cc1 | > 250 | > 250 | 215 | 217
Nc1ccc(/C=C2\SC(=O)N(Cc3ccc(C(F)(F)F)cc3)C2=O)cc1 | 96 | 32 | 134 | 6
C=C(Br)C(=O)Nc1cccc(/C=C2\SC(=O)N(Cc3ccc(C)cc3)C2=O)c1 | 1.2 | 1.2 | 1 | 0.6
C=C(Br)C(=O)Nc1cccc(/C=C2\SC(=O)N(Cc3cccc(Cl)c3)C2=O)c1 | 2.5 | 1.4 | 1.7 | 1.1
Nc1ccc(/C=C2\SC(=O)N(Cc3ccc(F)cc3)C2=O)cc1 | 186 | 111 | 36 | 24
C=C(Br)C(=O)Nc1cccc(/C=C2\SC(=O)N(CCc3ccccc3)C2=O)c1 | 3.5 | 0.94 | 2.2 | 1.3
C=C(Br)C(=O)Nc1ccc(/C=C2\SC(=O)N(C)C2=O)cc1 | 0.87 | 0.36 | 0.75 | 0.19
CC(C)(C)c1ccc(CN2C(=O)S/C(=C\c3cccc(N)c3)C2=O)cc1 | 145 | 165 | 188 | 223
Nc1ccc(/C=C2\SC(=O)N(Cc3cccc(Cl)c3)C2=O)cc1 | 24 | 18 | 10 | 4.7
C=C(Br)C(=O)Nc1cccc(/C=C2\SC(=O)N(Cc3ccc(Cl)cc3)C2=O)c1 | 2.7 | 1.4 | 1.6 | 0.94
CN1C(=O)S/C(=C\c2ccc(N)cc2)C1=O | 97 | 62 | 107 | 99
Nc1ccc(/C=C2\SC(=O)N(Cc3ccc(Cl)cc3)C2=O)cc1 | 77 | 87 | 60 | 37
C=C(Br)C(=O)Nc1ccc(/C=C2\SC(=O)N(Cc3ccc(Cl)cc3)C2=O)cc1 | 2.3 | 2.8 | 5.1 | 3.4
C=C(Br)C(=O)Nc1ccc(/C=C2\SC(=O)N(CCc3ccccc3)C2=O)cc1 | 4.5 | 4.2 | 5.5 | 2.9
Nc1cccc(/C=C2\SC(=O)N(Cc3ccccc3)C2=O)c1 | > 250 | > 250 | > 250 | 233
Nc1cccc(/C=C2\SC(=O)N(Cc3cccc(F)c3)C2=O)c1 | > 250 | 250 | > 250 | 199
